Measurements from US11814364B2, “Pyridine N-oxide derivatives useful as factor XIa inhibitors” (Janssen Pharmaceutica NV, priority 2021, dated 2023).

Target: human plasma kallikrein (Homo sapiens, UniProt P03952)
Experiment: Kallikrein inhibition FLINT assay with quenched AMC peptide substrate Z-Gly-Pro-Arg-AMC (end point EP or kinetic KIN reads)
Assay type: biochemical
Settings: kinetic reads at 5 min intervals over 30 min; read-out: Kallikrein (KIN) IC50
In short: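 Enzyme and compound were preincubated 30 min before adding 50 μM AMC substrate in pH 7.5 Tris/NaCl/CaCl2/BSA/CHAPS buffer. AMC release was read at 30 min endpoint or every 5 min.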

Sequence of human plasma kallikrein (P03952 391-638 limits assumed): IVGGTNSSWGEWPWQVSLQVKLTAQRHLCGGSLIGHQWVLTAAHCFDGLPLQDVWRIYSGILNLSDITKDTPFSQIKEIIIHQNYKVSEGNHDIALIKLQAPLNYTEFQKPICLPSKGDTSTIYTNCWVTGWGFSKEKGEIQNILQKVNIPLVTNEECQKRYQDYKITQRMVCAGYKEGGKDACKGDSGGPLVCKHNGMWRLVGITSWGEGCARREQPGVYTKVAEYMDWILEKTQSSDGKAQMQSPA
Sequence of human plasma kallikrein (P03952 20-390 partner limits assumed): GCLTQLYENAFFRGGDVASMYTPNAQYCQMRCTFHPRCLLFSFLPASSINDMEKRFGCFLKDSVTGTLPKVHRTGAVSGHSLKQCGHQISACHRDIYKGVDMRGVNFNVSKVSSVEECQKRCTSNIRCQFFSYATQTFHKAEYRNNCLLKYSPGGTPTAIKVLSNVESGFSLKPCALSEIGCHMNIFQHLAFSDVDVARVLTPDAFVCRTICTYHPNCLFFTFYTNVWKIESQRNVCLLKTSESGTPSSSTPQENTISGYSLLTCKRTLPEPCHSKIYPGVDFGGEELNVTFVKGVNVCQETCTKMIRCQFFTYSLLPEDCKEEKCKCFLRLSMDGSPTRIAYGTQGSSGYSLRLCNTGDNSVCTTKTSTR

First: [O-][n+]1cc(-c2c(-n3cnnn3)ccc(Cl)c2F)ccc1C(Cn1cc(C(F)(F)F)cn1)n1cc(-c2ccnc(F)c2)cn1 (stereo not shown) [Example P331]
Second: O=C(Cc1cnn(CC(c2ccc(-c3c(-n4cnnn4)ccc(Cl)c3F)c[n+]2[O-])n2cc(-c3ccnc(C(F)(F)F)c3)cn2)c1)N1CCCCC1 (stereo not shown) [Example P475]
The IC50 of the first is 11-fold lower: 28.5 nM for the first, 324 nM for the second. The first is the more potent here.

Going from `COc1cc(C(CC2CC2)n2cc(-c3ncnn3C)cn2)[n+]([O-])cc1-c1cc(Cl)ccc1C#N` (single isomer, unassigned) [Example Q61] to `COc1cc(C(CC2CC2)n2cc(-c3c(F)nnn3C)cn2)[n+]([O-])cc1-c1cc(Cl)ccc1C#N` (single isomer, unassigned) [Example Q62], the IC50 falls from 281 nM to 80.9 nM (3.5-fold).

Going from `COc1cc(C(CC2CC2)n2cc(-c3ccnn3C)cn2)[n+]([O-])cc1-c1c(-n2cnnn2)ccc(Cl)c1F` (single isomer, unassigned) [Example P491] to `Cn1cncc1-c1cnn(C(CC2CC2)c2ccc(-c3c(-n4cnnn4)ccc(Cl)c3F)c[n+]2[O-])c1` (stereo not shown) [Example P495], the IC50 rises from 2.1 nM to 211 nM (100-fold). The first is the more potent here.

Going from `COc1cc(C(CC2CC2)n2cc(-c3cnn(C)c(=O)c3)cn2)[n+]([O-])cc1-c1c(C#N)ccc(Cl)c1F` (single isomer, unassigned) [Example Q10] to `COc1cnc(F)c(-c2cnn(C(CC3CC3)c3ccc(-c4c(-n5cnnn5)ccc(Cl)c4F)c[n+]3[O-])c2)c1` (stereo not shown) [Example P75], the IC50 falls from 375 nM to 249 nM (1.5-fold).

Going from `COCC[C@@H](c1ccc(-c2c(-n3cnnn3)ccc(Cl)c2F)c[n+]1[O-])n1cc(-c2cc(C(F)(F)F)nn2C)cn1` [Example P620] to `COC(=O)N(C)CC(c1ccc(-c2c(-n3cnnn3)ccc(Cl)c2F)c[n+]1[O-])n1cc(-c2ccnc(C(F)(F)F)c2)cn1` (single isomer, unassigned) [Example P381], the IC50 falls from 5290 nM to 36.6 nM (140-fold). The second is the more potent here.

Going from `NC(=O)C1CC1CC(c1ccc(-c2c(-n3cnnn3)ccc(Cl)c2F)c[n+]1[O-])n1cc(-c2ccc(N)nc2F)cn1` (single isomer, unassigned) [Example P338] to `COC(=O)Nc1ccc(-c2cnn(C(CC3CC3C(N)=O)c3ccc(-c4c(-n5cnnn5)ccc(Cl)c4F)c[n+]3[O-])c2)cc1` (stereo not shown) [Example P249], the IC50 rises from 74.5 nM to 668 nM (9-fold).

First: Cn1nccc1-c1cnn(C(Cn2cc(F)cn2)c2ccc(-c3c(C(F)F)ccc(Cl)c3F)c[n+]2[O-])c1 (stereo not shown) [Example Q30]
Second: CC(C)(O)C[C@H](c1ccc(-c2c(-n3cnnn3)ccc(Cl)c2F)c[n+]1[O-])n1cc(-c2ccnn2C(F)F)cn1 [Example P648]
The IC50 of the first is 6-fold lower: 88.1 nM for the first, 532 nM for the second. The first is the more potent here.

Compared with `Cn1ncnc1-c1cnn([C@H](CCOC(F)F)c2ccc(-c3cc(Cl)ccc3-n3cc(C(F)(F)F)nn3)c[n+]2[O-])c1` [Example P805], `N#Cc1cn(-c2ccc(Cl)c(F)c2-c2ccc([C@@H](CCOC(F)F)n3cc(-c4ncnn4C(F)F)cn3)[n+]([O-])c2)nn1` [Example P790] is 7.2-fold lower in IC50: 256 nM for the first, 35.8 nM for the second. The second is the more potent here.

First: COC(=O)N1CCC(c2cnn(C(CC3CC3)c3ccc(-c4c(-n5cnnn5)ccc(Cl)c4F)c[n+]3[O-])c2)CC1 (stereo not shown) [Example P167]
Second: COC(=O)Nc1ccc(-c2cnn(C(CC3CCC(C)CC3)c3ccc(-c4c(-n5cnnn5)ccc(Cl)c4F)c[n+]3[O-])c2)cc1 (stereo not shown) [Example P129]
The IC50 of the first is 6.1-fold higher: 826 nM for the first, 136 nM for the second. The second is the more potent here.

Going from `COC(=O)Nc1ccc(-c2cnn(C(CN(C)C(=O)OC)c3ccc(-c4c(-n5cnnn5)ccc(Cl)c4F)c[n+]3[O-])c2)cc1` (stereo not shown) [Example P476] to `CCCC(c1ccc(-c2c(-n3cnnn3)ccc(Cl)c2F)c[n+]1[O-])n1cc(-c2ccc(NC(=O)OC)cc2)cn1` (single isomer, unassigned) [Example P158], the IC50 rises from 21.6 nM to 45.1 nM (2.1-fold).

Going from `COC(=O)Nc1ccc(-c2cnn(C(CC3CC3C(=O)N3CCCC(c4ccccc4)C3)c3ccc(-c4c(-n5cnnn5)ccc(Cl)c4F)c[n+]3[O-])c2)cc1` (stereo not shown) [Example P222] to `O=C(O)C1CCCN(C(=O)C2CC2CC(c2ccc(-c3c(-n4cnnn4)ccc(Cl)c3F)c[n+]2[O-])n2cc(-c3ccccc3)cn2)C1` (stereo not shown) [Example P223], the IC50 rises from 189 nM to 791 nM (4.2-fold). The first is the more potent here.

Compared with `Cn1nncc1-c1cnn([C@H](Cc2ccc(C(F)(F)F)nc2)c2ccc(-c3c(-n4cc(Cl)nn4)ccc(Cl)c3F)c[n+]2[O-])c1` [Example P772], `[O-][n+]1cc(-c2c(-n3cnnn3)ccc(Cl)c2F)ccc1[C@H](Cc1cn(C(F)F)nn1)n1cc(-c2ccnc(C(F)(F)F)c2)cn1` [Example P746] is 14-fold higher in IC50: 42.3 nM for the first, 588 nM for the second. The first is the more potent here.

Going from `CN(CC(c1ccc(-c2c(-n3cnnn3)ccc(Cl)c2F)c[n+]1[O-])n1cc(-c2ccncc2)cn1)C(=O)Cc1ccccc1` (stereo not shown) [Example P299] to `CC1CC1CC(c1ccc(-c2c(-n3cnnn3)ccc(Cl)c2F)c[n+]1[O-])n1cc(-c2ccc(C(=O)O)cc2)cn1` (stereo not shown) [Example P227], the IC50 falls from 24.9 nM to 11.9 nM (2.1-fold).

Compared with `O=C(O)c1ccc(-c2cnn(C(CN3CCCC3=O)c3ccc(-c4c(C(F)F)ccc(Cl)c4F)c[n+]3[O-])c2)cc1` (single isomer, unassigned) [Example Q14], `O=C(O)c1ccc(-c2cnn(C(Cc3ccn(C(F)F)n3)c3ccc(-c4c(C(F)F)ccc(Cl)c4F)c[n+]3[O-])c2)cc1` (single isomer, unassigned) [Example Q70] is higher in IC50: 3.9 nM for the first, > 274 nM for the second.

Going from `O=C1CCCN1CC(c1ccc(-c2c(-n3cnnn3)ccc(Cl)c2F)c[n+]1[O-])n1cc(-c2cc[n+]([O-])c(C(F)F)c2)cn1` (stereo not shown) [Example P365] to `CN1CCN(CC(c2ccc(-c3c(-n4cnnn4)ccc(Cl)c3F)c[n+]2[O-])n2cc(-c3ccnc(C(F)(F)F)c3)cn2)C1=O` (single isomer, unassigned) [Example P433], the IC50 rises from 30.1 nM to 105 nM (3.5-fold). The first is the more potent here.

Compared with `[O-][n+]1cc(-c2c(-n3cc(Cl)nn3)ccc(Cl)c2F)ccc1[C@@H](CCOC(F)F)n1cc(-c2cn(C(F)F)nn2)cn1` [Example P679], `NC(=O)c1ccc(-c2cnn(C(CCOC(F)F)c3ccc(-c4c(-n5cc(Cl)nn5)ccc(Cl)c4F)c[n+]3[O-])c2)cc1` (single isomer, unassigned) [Example P895] is 2-fold higher in IC50: 353 nM for the first, 702 nM for the second. The first is the more potent here.

Compared with `COC(=O)NC(C)c1ccc(-c2cnn(C(Cc3ccccc3)c3ccc(-c4cc(Cl)ccc4-n4cnnn4)c[n+]3[O-])c2)cc1` (stereo not shown) [Example P58], `COc1ccc(CC(c2ccc(-c3cc(Cl)ccc3-n3cnnn3)c[n+]2[O-])n2cc(-c3ccc(C(=O)O)cc3)cn2)cc1` (stereo not shown) [Example P64] is 5.4-fold lower in IC50: 28.5 nM for the first, 5.3 nM for the second. The second is the more potent here.

Going from `[O-][n+]1cc(-c2c(-n3cnnn3)ccc(Cl)c2F)ccc1C(Cc1ccn(C(F)F)n1)n1cc(-c2ccnc(C(F)(F)F)c2)cn1` (stereo not shown) [Example P703] to `CN(CC(c1ccc(-c2c(-n3cnnn3)ccc(Cl)c2F)c[n+]1[O-])n1cc(-c2ccnc(C(F)(F)F)c2)cn1)C(=O)c1ccn(C)c(=O)c1` (single isomer, unassigned) [Example P434], the IC50 rises from 9.7 nM to 427 nM (44-fold).

Compared with `[O-][n+]1ccc(-c2cnn(C(Cn3cccn3)c3ccc(-c4c(-n5cnnn5)ccc(Cl)c4F)c[n+]3[O-])c2)nc1` (stereo not shown) [Example P320], `O=C(c1cnn(CC(c2ccc(-c3c(-n4cnnn4)ccc(Cl)c3F)c[n+]2[O-])n2cc(-c3ccncc3)cn2)c1)N1CCCCC1` (stereo not shown) [Example P291] is 10-fold lower in IC50: 128 nM for the first, 12.5 nM for the second.

`COc1cc(C(Cc2ccn(C(F)F)n2)n2cc(-c3ccc(C(=O)O)c(F)c3)cn2)[n+]([O-])cc1-c1c(C(F)F)ccc(Cl)c1F` (stereo not shown) [Example Q74] and `O=C(O)c1ccc(-c2cnn(C(Cc3ccc(Oc4ccccc4)cc3)c3ccc(-c4cc(Cl)ccc4-n4cnnn4)c[n+]3[O-])c2)cc1` (stereo not shown) [Example P147] are within 1.5-fold of each other in IC50: 11 nM for the first, 12.2 nM for the second.
